These results are taken from US20220033407A1, “N-(pyridin-2-ylsulfonyl)cyclopropanecarboxamide Derivatives and their Use in the Treatment of Disease” (NOVARTIS AG, priority 2018, published 2022).

Broadly, the EC50 is the concentration needed to bring the measured effect to its halfway point.

Molecules are shown by their SMILES.

In this experiment the target is T1, delF508-CFTR-HRP (Homo sapiens, UniProt P13569, DEL508-508).
T1 construct: expressed in transfected cells
As to the kind of experiment: Measurement of delF508-CFTR-HRP surface expression in CFBE41o- cells (HRP luminescence).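 On DelF508-CFTR-HRP Amax %: percent efficacy relative to a reference CFTR corrector compound.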 It is filed as cell-based. As to conditions: for Emax: CFBE41o-, read-out: DelF508-CFTR-HRP Amax %; for EC50: mean of at least two replicates. The source says:
Measurement of delF508-CFTR-HRP Surface Expression in CFBE41o-Cells
This assay quantifies the cell surface expressions of the mutant CFTR channel using an extracellular HRP tag.
A cellular assay was developed to measure surface expression of horseradish peroxidase (HRP) tagged delF508-CFTR in the human bronchial epithelial immortalized CFBE41o-cell line (Phuan, P. W., et al, (2014) Molecular Pharmacology 86:42-51). Specifically, the HRP sequence was inserted into the fourth extracellular loop of delF508-CFTR and stably expressed in CFBE41o-cells. Cells were seeded in 384 well plate at a density of 5000 cells/well and incubated at 37° C. for 12 to 24 hours in medium (Gibco MEM #11095, 10% FBS, 10 mM HEPES, […], 200 μg/mL G418, 3 μg/mL Puromycin). The delF508-CFTR-HRP expression was induced with 500 ng/mL doxycycline (Sigma D-9891, dissolved in H2O and sterile filtered) in medium and the cells were incubated at 37° C. for 48 h. Old medium was removed and fresh medium was added containing 500 ng/mL doxycycline and unknown test compound at required test concentration in DMSO, not exceeding 0.5% final DMSO concentration. The highest concentration tested was 10 μM with a 10-point concentration response curve using a 3-fold dilution. After addition of compounds, the cells were incubated for 24 h at 37° C. On the final day, cells were washed four times in PBS containing 1 mM MgCl2 and 0.1 mM CaCl2. HRP-Substrate (SuperSignal ELISA Pico, Fisher #37069) 20 μl/well was added and the luminescence signal was determined (Viewlux, Perkin Elmer). Light was emitted upon addition of exogenous HRP-Substrate only when delF508-CFTR-HRP reached the cell surface and the HRP tag was accessible to the HRP-Substrate (note: HRP-Substrate cannot cross the lipid bilayer to reach delF508-CFTR-HRP misfolded within the cell).
The median activity for the lowest concentration of the compounds on each assay plate was calculated and this value was used to normalize the signal for each well on the respective plate. Three replicates at each concentrations for every compound were run to determine one EC50. The median value was determined and used to calculate compound activities as described below. Effective half maximal values (EC50) were calculated for each compound by performing logistic regression on measured dose-response data points using the equation: […]
where “Y” is the observed activity, “Bottom” is the lowest observed value, “Top” is the highest observed value, and the “Hill coefficient” gives the largest absolute value of the slope. The curve fitting is carried out by a curve fitting program implemented at GNF using Matlab (Mathworks). The dose response curves also were used to calculate Fold Change (FC) using the equation: […]
Compound efficacy relative to the reference compound 3-(6-(1-(2,2-difluorobenzo[d][1,3]dioxol-5-yl)cyclopropane-1-carboxamido)-3-methylpyridin-2-yl)benzoic acid was determined using the following formula: […]

T1 sequence (P13569 with tags, fused parts or gaps DEL508-508): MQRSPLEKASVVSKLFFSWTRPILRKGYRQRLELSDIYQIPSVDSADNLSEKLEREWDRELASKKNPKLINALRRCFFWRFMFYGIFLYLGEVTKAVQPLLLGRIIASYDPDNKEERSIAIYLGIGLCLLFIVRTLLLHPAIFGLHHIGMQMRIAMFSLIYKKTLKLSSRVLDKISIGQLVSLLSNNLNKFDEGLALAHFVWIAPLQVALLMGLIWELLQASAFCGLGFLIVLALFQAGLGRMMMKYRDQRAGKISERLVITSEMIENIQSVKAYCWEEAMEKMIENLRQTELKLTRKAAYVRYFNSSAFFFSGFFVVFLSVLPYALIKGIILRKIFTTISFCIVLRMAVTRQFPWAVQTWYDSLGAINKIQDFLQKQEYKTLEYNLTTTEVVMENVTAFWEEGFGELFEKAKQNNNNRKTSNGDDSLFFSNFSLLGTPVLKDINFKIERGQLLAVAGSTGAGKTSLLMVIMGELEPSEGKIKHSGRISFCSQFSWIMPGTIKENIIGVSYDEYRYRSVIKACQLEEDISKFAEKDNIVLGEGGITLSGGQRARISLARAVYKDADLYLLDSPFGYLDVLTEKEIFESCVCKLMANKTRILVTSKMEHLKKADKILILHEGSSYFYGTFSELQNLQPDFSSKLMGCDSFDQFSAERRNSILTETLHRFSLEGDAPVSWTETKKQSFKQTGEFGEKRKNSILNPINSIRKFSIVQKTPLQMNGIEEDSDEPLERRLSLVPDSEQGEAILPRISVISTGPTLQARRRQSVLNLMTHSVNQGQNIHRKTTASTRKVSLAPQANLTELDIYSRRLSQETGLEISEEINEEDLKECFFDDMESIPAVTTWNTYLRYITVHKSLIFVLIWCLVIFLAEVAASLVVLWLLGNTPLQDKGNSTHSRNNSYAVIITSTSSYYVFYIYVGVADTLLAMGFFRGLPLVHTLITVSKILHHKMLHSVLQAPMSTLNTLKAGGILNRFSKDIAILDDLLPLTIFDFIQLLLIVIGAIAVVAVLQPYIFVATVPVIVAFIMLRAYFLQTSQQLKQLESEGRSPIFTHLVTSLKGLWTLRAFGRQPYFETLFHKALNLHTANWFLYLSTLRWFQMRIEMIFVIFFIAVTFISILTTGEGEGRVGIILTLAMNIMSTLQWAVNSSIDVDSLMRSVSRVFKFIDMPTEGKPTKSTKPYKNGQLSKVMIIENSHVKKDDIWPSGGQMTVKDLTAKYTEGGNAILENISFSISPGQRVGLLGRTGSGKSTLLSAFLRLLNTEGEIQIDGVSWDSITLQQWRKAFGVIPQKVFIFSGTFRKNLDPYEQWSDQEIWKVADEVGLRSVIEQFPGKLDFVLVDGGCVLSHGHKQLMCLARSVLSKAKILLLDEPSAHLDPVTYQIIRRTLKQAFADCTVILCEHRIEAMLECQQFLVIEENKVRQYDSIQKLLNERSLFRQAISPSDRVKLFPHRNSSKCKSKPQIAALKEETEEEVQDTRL

On to `Cc1ccc(C2CCCCC2)c(OC2(C(=O)NS(=O)(=O)c3cccc(N4CCCC(N)C4)n3)CC2)c1` (centres unmarked) [Example 2-13, N-((6-(3-Aminopiperidin-1-yl)pyridin-2-yl)sulfonyl)-1-(2-cyclohexyl-5-methylphenoxy)cyclopropanecarboxamide], for which the Emax is 119% and the EC50 came out at 4610 nM.

As for `CC1(C)CCN(c2ccc(Cl)cc2OC2(C(=O)NS(=O)(=O)c3cccc(N4CC[C@](C)(O)C4)n3)CC2)CC1` [Example 10-1, (S)-1-(5-chloro-2-(4,4-dimethylpiperidin-1-yl)phenoxy)-N-((6-(3-hydroxy-3-methylpyrrolidin-1-yl)pyridin-2-yl)sulfonyl)cyclopropanecarboxamide], the Emax came to 547% and a half-maximal response (EC50) required 530 nM.

Take `CC1(NC(=O)OC(C)(C)C)CCN(c2cccc(S(=O)(=O)NC(=O)C3(Oc4cc(Cl)ccc4C4CC5(CCC5)C4)CC3)n2)CC1` [Example 7-7, Tert-butyl (1-(6-(N-(1-(5-chloro-2-(spiro[3.3]heptan-2-yl)phenoxy)cyclopropanecarbonyl)sulfamoyl)pyridin-2-yl)-4-methylpiperidin-4-yl)carbamate]: the Emax was 357% and the EC50 was 590 nM.

For `O=C(NS(=O)(=O)c1cccc(N2CC[C@@H](O)C2)n1)C1(Oc2cc(Cl)ccc2N2CCC3(CC2)CC3)CC1` [Example 9-29, (R)-1-(5-Chloro-2-(6-azaspiro[2.5]octan-6-yl)phenoxy)-N-((6-(3-hydroxypyrrolidin-1-yl)pyridin-2-yl)sulfonyl)cyclopropanecarboxamide], the Emax came to 691% and the concentration giving a half-maximal response (EC50) worked out at 950 nM.

For the compound `O=C(NS(=O)(=O)c1cccc(N2CC3(CCO3)C2)n1)C1(Oc2cc(Cl)ccc2C2CC3(CCC3)C2)CC1` [Example 7-5, N-((6-(1-oxa-6-azaspiro[3.3]heptan-6-yl)pyridin-2-yl)sulfonyl)-1-(5-chloro-2-(spiro[3.3]heptan-2-yl)phenoxy)cyclopropanecarboxamide], the Emax came out at 493% and the midpoint of the response, the EC50, lay at 880 nM.

With `CC1(C)CCCN(c2ccc(Cl)cc2OC2(C(=O)NS(=O)(=O)c3cccc(N4CC[C@](C)(O)C4)n3)CC2)C1` [Example 9-27, (S)-1-(5-Chloro-2-(3,3-dimethylpiperidin-1-yl)phenoxy)-N-((6-(3-hydroxy-3-methylpyrrolidin-1-yl)pyridin-2-yl)sulfonyl)cyclopropanecarboxamide], the Emax was 857% and the EC50 came out at 610 nM.

For the compound `O=C(NS(=O)(=O)c1cccc(N2CC[C@@H](O)C2)n1)C1(Oc2cc(Cl)ccc2C2CC3(CCC3)C2)CC1` [Example 7-19, (R)-1-(5-Chloro-2-(spiro[3.3]heptan-2-yl)phenoxy)-N-((6-(3-hydroxypyrrolidin-1-yl)pyridin-2-yl)sulfonyl)cyclopropane-1-carboxamide], the Emax stood at 350% and it took 1050 nM to reach a half-maximal effect (EC50).

For `CC(C)[C@H](CO)Nc1cccc(S(=O)(=O)NC(=O)C2(Oc3cc(Cl)ccc3N3CCC(C)(C)CC3)CC2)n1` [Example 9-38, (R)-1-(5-Chloro-2-(4,4-dimethylpiperidin-1-yl)phenoxy)-N-((6-((1-hydroxy-3-methylbutan-2-yl)amino)pyridin-2-yl)sulfonyl)cyclopropane-1-carboxamide], the Emax is 789% and the EC50 is 1470 nM.

Consider `O=C(NS(=O)(=O)c1cccc(N2CCC3(CCCO3)CC2)n1)C1(Oc2cc(Cl)ccc2C2CC3(CCC3)C2)CC1` [Example 7-6, N-((6-(1-oxa-8-azaspiro[4.5]decan-8-yl)pyridin-2-yl)sulfonyl)-1-(5-chloro-2-(spiro[3.3]heptan-2-yl)phenoxy)cyclopropanecarboxamide], for which the Emax is 408% and the EC50 is 850 nM.

With `Cc1ccc(OC2CCC(C(C)(C)C)CC2)c(OC2(C(=O)NS(=O)(=O)c3cccc(N4CCC(C)(O)CC4)n3)CC2)c1` (centres unmarked) [Example 6-5, 1-(2-((4-(tert-butyl)cyclohexyl)oxy)-5-methylphenoxy)-N-((6-(4-hydroxy-4-methylpiperidin-1-yl)pyridin-2-yl)sulfonyl)cyclopropanecarboxamide], the Emax is 519% and it took 370 nM to reach a half-maximal effect (EC50).

Take `Cc1ccc(OCC(C)C)c(OC2(C(=O)NS(=O)(=O)c3cccc(N4CC[C@H](O)C4)n3)CC2)c1` [Example 6-15, (S)—N-((6-(3-hydroxypyrrolidin-1-yl)pyridin-2-yl)sulfonyl)-1-(2-isobutoxy-5-methylphenoxy)cyclopropanecarboxamide]: the Emax worked out at 215% and the EC50 is 2940 nM.

With `CC1(O)CCCN(c2cccc(S(=O)(=O)NC(=O)C3(Oc4cc(Cl)ccc4C4CC5(CCC5)C4)CC3)n2)C1` (single isomer, unassigned) [Example 7-8-2, 1-(5-chloro-2-(spiro[3.3]heptan-2-yl)phenoxy)-N-((6-(3-hydroxy-3-methylpiperidin-1-yl)pyridin-2-yl)sulfonyl)cyclopropanecarboxamide], the “DelF508-CFTR-HRP Amax %” value is 248.0% and a half-maximal response (EC50) required 1020 nM.

Regarding `CC1(O)CCN(c2cccc(S(=O)(=O)NC(=O)C3(Oc4cc(Cl)ccc4N4CCC(C(C)(C)C)CC4)CC3)n2)CC1` [Example 9-35, 1-(2-(4-(Tert-butyl)piperidin-1-yl)-5-chlorophenoxy)-N-((6-(4-hydroxy-4-methylpiperidin-1-yl)pyridin-2-yl)sulfonyl)cyclopropanecarboxamide], the Emax came to 140% and the midpoint of the response, the EC50, lay at 340 nM.

As for `COC(=O)C(C)(C)CN1CCN(c2cccc(S(=O)(=O)NC(=O)C3(Oc4cc(C)ccc4C4CCCCC4)CC3)n2)CC1` [Example 2-38, Methyl 3-(4-(6-(N-(1-(2-cyclohexyl-5-methylphenoxy)cyclopropanecarbonyl)sulfamoyl)pyridin-2-yl)piperazin-1-yl)-2,2-dimethylpropanoate], the Emax stood at 293% and the EC50 came to 360 nM.

For the compound `O=C(NS(=O)(=O)c1cccc(N2CC[C@H](O)C2)n1)C1(Oc2cc(Cl)ccc2-c2ccc3occc3c2)CC1` [Example 5-12, (S)-1-(2-(Benzofuran-5-yl)-5-chlorophenoxy)-N-((6-(3-hydroxypyrrolidin-1-yl)pyridin-2-yl)sulfonyl)cyclopropane-1-carboxamide], the Emax is 204% and a half-maximal response (EC50) required 2470 nM.

`CC1(C)CCN(c2ccc(Cl)cc2OC2(C(=O)NS(=O)(=O)c3cccc(N4CCC(c5ccccn5)CC4)n3)CC2)CC1` [Example 10-3, 1-(5-chloro-2-(4,4-dimethylpiperidin-1-yl)phenoxy)-N-((6-(4-(pyridin-2-yl)piperidin-1-yl)pyridin-2-yl)sulfonyl)cyclopropanecarboxamide]: the Emax stood at 493% and it took 600 nM to reach a half-maximal effect (EC50).

With `O=C(NS(=O)(=O)c1cccc(N2CC[C@H](O)C2)n1)C1(Oc2cc(Cl)ccc2-c2ccc3c(c2)OC(F)(F)O3)CC1` [Example 5-15, (S)-1-(5-Chloro-2-(2,2-difluorobenzo[d][1,3]dioxol-5-yl)phenoxy)-N-((6-(3-hydroxypyrrolidin-1-yl)pyridin-2-yl)sulfonyl)cyclopropane-1-carboxamide], the Emax stood at 361% and the EC50 was 2540 nM.

As to `CC(C)COc1cccc(-c2ccc(Cl)cc2OC2(C(=O)NS(=O)(=O)c3cccc(N4CCC(C)(C#N)CC4)n3)CC2)c1` [Example 5-3, 1-((4-Chloro-3′-isobutoxy-[1,1′-biphenyl]-2-yl)oxy)-N-((6-(4-cyano-4-methylpiperidin-1-yl)pyridin-2-yl)sulfonyl)cyclopropane-1-carboxamide], the Emax was found to be 286% and the 50% effective concentration (EC50) is 750 nM.

For the compound `CC(C)(C)OC1CCN(c2ccc(Cl)cc2OC2(C(=O)NS(=O)(=O)c3cccc(N4CC[C@H](O)C4)n3)CC2)C1` (stereo partly drawn) [Example 9-32, 1-(2-(3-(Tert-butoxy)pyrrolidin-1-yl)-5-chlorophenoxy)-N-((6-((S)-3-hydroxypyrrolidin-1-yl)pyridin-2-yl)sulfonyl)cyclopropanecarboxamide], the Emax is 485% and the EC50 was 1180 nM.
